Test system: 782815-120-R-J1-PDC complex spheroid viability
Test: Anticancer human tumor 782815-120-R-J1-PDC patient-derived colon adenocarcinoma cell line growth inhibition [RAS]
Settings: for IC50: curve of first compound; for viability, T/C: stronger effect = lower value
Method in brief: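 Multi-cell-type spheroids: tumor cells plus HUVEC endothelial cells and mesenchymal stem cells. RAS-pathway inhibitors were combined with targeted agents, each dosed in half-log steps down from clinical Cmax, or from 10 microM when Cmax was unknown.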
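Further: spheroids exposed to compounds for 7 days before reading.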
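Wherever viability, T/C is given: 100% = DMSO vehicle control viability.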

CC(C)n1nc(-c2ccc3oc(N)nc3c2)c2c(N)ncnc21 + C#Cc1c(F)ccc2cc(O)cc(-c3ncc4c(N5CC6CCC(C5)N6)nc(OCC56CCCN5CC(F)C6)nc4c3F)c12
IC50 (second compound 0.0316 µM): > 100 nM | IC50 (second compound 0.1 µM): > 100 nM | IC50 (second compound 0.316 µM): > 100 nM | IC50 (second compound 1 µM): > 100 nM | IC50 (second compound 3.16 µM): > 100 nM | IC50 (second compound 10 µM): > 100 nM | viability, T/C (second compound 0.0316 µM, first compound 0.000316 µM): 97% | viability, T/C (second compound 0.0316 µM, first compound 0.001 µM): 100% | viability, T/C (second compound 0.0316 µM, first compound 0.00316 µM): 105% | viability, T/C (second compound 0.0316 µM, first compound 0.01 µM): 98.1% | viability, T/C (second compound 0.0316 µM, first compound 0.0316 µM): 91.8% | viability, T/C (second compound 0.0316 µM, first compound 0.1 µM): 85.2% | viability, T/C (second compound 0.1 µM, first compound 0.000316 µM): 99.1% | viability, T/C (second compound 0.1 µM, first compound 0.001 µM): 91.4% | viability, T/C (second compound 0.1 µM, first compound 0.00316 µM): 101% | viability, T/C (second compound 0.1 µM, first compound 0.01 µM): 89.6% | viability, T/C (second compound 0.1 µM, first compound 0.0316 µM): 97% | viability, T/C (second compound 0.1 µM, first compound 0.1 µM): 81.6% | viability, T/C (second compound 0.316 µM, first compound 0.000316 µM): 96.6% | viability, T/C (second compound 0.316 µM, first compound 0.001 µM): 105% | viability, T/C (second compound 0.316 µM, first compound 0.00316 µM): 94.5% | viability, T/C (second compound 0.316 µM, first compound 0.01 µM): 108% | viability, T/C (second compound 0.316 µM, first compound 0.0316 µM): 88.1% | viability, T/C (second compound 0.316 µM, first compound 0.1 µM): 84.1% | viability, T/C (second compound 1 µM, first compound 0.000316 µM): 99.7% | viability, T/C (second compound 1 µM, first compound 0.001 µM): 101% | viability, T/C (second compound 1 µM, first compound 0.00316 µM): 88.6% | viability, T/C (second compound 1 µM, first compound 0.01 µM): 105% | viability, T/C (second compound 1 µM, first compound 0.0316 µM): 93.7% | viability, T/C (second compound 1 µM, first compound 0.1 µM): 83.8% | viability, T/C (second compound 3.16 µM, first compound 0.000316 µM): 98.7% | viability, T/C (second compound 3.16 µM, first compound 0.001 µM): 101% | viability, T/C (second compound 3.16 µM, first compound 0.00316 µM): 93.5% | viability, T/C (second compound 3.16 µM, first compound 0.01 µM): 92.6% | viability, T/C (second compound 3.16 µM, first compound 0.0316 µM): 92.1% | viability, T/C (second compound 3.16 µM, first compound 0.1 µM): 84.4% | viability, T/C (second compound 10 µM, first compound 0.000316 µM): 101% | viability, T/C (second compound 10 µM, first compound 0.001 µM): 95.3% | viability, T/C (second compound 10 µM, first compound 0.00316 µM): 85.3% | viability, T/C (second compound 10 µM, first compound 0.01 µM): 92.8% | viability, T/C (second compound 10 µM, first compound 0.0316 µM): 88.8% | viability, T/C (second compound 10 µM, first compound 0.1 µM): 74.7%

O=C(c1ccc(F)c(F)c1Nc1ccc(I)cc1F)N1CC(O)([C@@H]2CCCCN2)C1 + CCn1c(-c2cccnc2C(C)OC)c2c3cc(ccc31)N1CCOC(CC(NC(=O)C(C(C)C)N(C)C(=O)C3(F)CCN(C(=O)C#CC(C)(C)N(C)C)CC3)C(=O)N3CCCC(N3)C(=O)OCC(C)(C)C2)C1
IC50 (second compound 0.000949 µM): 47.7 nM | IC50 (second compound 0.003 µM): 53.4 nM | IC50 (second compound 0.00949 µM): 45.5 nM | IC50 (second compound 0.03 µM): 51.9 nM | IC50 (second compound 0.0949 µM): 46.1 nM | IC50 (second compound 0.3 µM): 40.6 nM | viability, T/C (second compound 0.000949 µM, first compound 0.00316 µM): 91.2% | viability, T/C (second compound 0.000949 µM, first compound 0.01 µM): 74.1% | viability, T/C (second compound 0.000949 µM, first compound 0.0316 µM): 60% | viability, T/C (second compound 0.000949 µM, first compound 0.1 µM): 35.2% | viability, T/C (second compound 0.000949 µM, first compound 0.316 µM): 17% | viability, T/C (second compound 0.000949 µM, first compound 1 µM): 1.9% | viability, T/C (second compound 0.003 µM, first compound 0.00316 µM): 85.9% | viability, T/C (second compound 0.003 µM, first compound 0.01 µM): 73.5% | viability, T/C (second compound 0.003 µM, first compound 0.0316 µM): 60.6% | viability, T/C (second compound 0.003 µM, first compound 0.1 µM): 39.1% | viability, T/C (second compound 0.003 µM, first compound 0.316 µM): 16.4% | viability, T/C (second compound 0.003 µM, first compound 1 µM): 2.12% | viability, T/C (second compound 0.00949 µM, first compound 0.00316 µM): 88% | viability, T/C (second compound 0.00949 µM, first compound 0.01 µM): 74.6% | viability, T/C (second compound 0.00949 µM, first compound 0.0316 µM): 57.7% | viability, T/C (second compound 0.00949 µM, first compound 0.1 µM): 34.5% | viability, T/C (second compound 0.00949 µM, first compound 0.316 µM): 15.9% | viability, T/C (second compound 0.00949 µM, first compound 1 µM): 1.1% | viability, T/C (second compound 0.03 µM, first compound 0.00316 µM): 79.2% | viability, T/C (second compound 0.03 µM, first compound 0.01 µM): 86.5% | viability, T/C (second compound 0.03 µM, first compound 0.0316 µM): 55.3% | viability, T/C (second compound 0.03 µM, first compound 0.1 µM): 36.6% | viability, T/C (second compound 0.03 µM, first compound 0.316 µM): 14.8% | viability, T/C (second compound 0.03 µM, first compound 1 µM): 1.32% | viability, T/C (second compound 0.0949 µM, first compound 0.00316 µM): 78.3% | viability, T/C (second compound 0.0949 µM, first compound 0.01 µM): 73.4% | viability, T/C (second compound 0.0949 µM, first compound 0.0316 µM): 55.4% | viability, T/C (second compound 0.0949 µM, first compound 0.1 µM): 36.5% | viability, T/C (second compound 0.0949 µM, first compound 0.316 µM): 16.3% | viability, T/C (second compound 0.0949 µM, first compound 1 µM): 3.86% | viability, T/C (second compound 0.3 µM, first compound 0.00316 µM): 81.3% | viability, T/C (second compound 0.3 µM, first compound 0.01 µM): 66.4% | viability, T/C (second compound 0.3 µM, first compound 0.0316 µM): 56.3% | viability, T/C (second compound 0.3 µM, first compound 0.1 µM): 35.5% | viability, T/C (second compound 0.3 µM, first compound 0.316 µM): 14.2% | viability, T/C (second compound 0.3 µM, first compound 1 µM): 0.95%

Reference: PubChem BioAssay AID2060887 (Molecular Pharmacology Branch, DTP, NCI, 2025)
